Reference: patent US6613536B1, “Synthetic peptides and pharmaceutical compositions comprising them for the treatment of systemic lupus erythematosus” (Yeda Research and Development Co. Ltd., priority 1995, dated 2003)

Assays:
SJL/J and BALB/c mice [1] = test: Anti-DNA antibodies in sera of immunized mice (ELISA); assay type: in vivo, mouse; details: for anti-DNA antibodies in sera: sera three months after booster; for levels of autoantibodies including anti-DNA and anti-NE antibodies: SJL mice immunized with IIIa, BALB/c mice immunized with Ia
Description: ELISA was utilized for the detection and quantitation of antibodies in experimental mice, and in humans. Polystyrene microtiter plates were coated with the relevant antigen or antibody, and sera dilutions or supernatants derived from the human or mouse cell cultures were added to the blocked plates. Specific binding was determined following the addition of peroxidase-conjugated antibodies against the appropriate immunoglobulin (Ig) (e.g. goat anti-human or goat anti-mouse peroxidase-conjugated antibodies) and the peroxidase substrate. Optical densities were read at 414 nm using an ELISA reader.
SJL/J and BALB/c female mice (6-8 week old) were immunized with 20 μg of peptide Ia or IIIa of the invention, or with a control peptide designated p278 (the peptide desinated Pep 278h described in published PCT International Application WO 94/03208) or with mAb 5G12 emulsified in complete Freund's adjuvant (CFA) in the foot pads. Three weeks later the mice received a booster injection with the same amount of peptide or mAb, in PBS. Thereafter, blood was drawn every two weeks. A fifth group included non-immunized mice.
ELISA was utilized to test the presence of the anti-DNA antibodies in the sera of the mice, as follows : Plates (Nunc) were coated for 90 min with 10 μg/ml of methylated BSA. Thereafter the plates were washed (all the washes were 3 times with PBS/0.05% Tween 20 (Sigma)) and incubated for an additional 90 min with 10 μg/ml of single-stranded DNA (calf thymus DNA (Sigma) that was heated for 15 min at 90° C. and fast-cooled). The plates were washed and blocked overnight with 1% ovalbumin in PBS (Sigma). Thereafter, the plates were washed and incubated with the sera of the mice diluted in the blocking reagent, followed by wash and incubation with 1:500 dilution of goat anti-mouse IgG (Fc receptor specific) polyclonal antibody conjugated to peroxidase. The plates were then washed and developed using ABTS substrate (Sigma), and the color was read using an ELISA reader at 414 nm. Results are expressed as mean OD of each mouse group (5 mice per group).

SJL/J and BALB/c mice [2] = test: Anti-nuclear extract (NE) antibodies in sera of immunized mice (ELISA); assay type: in vivo, mouse
Description: Five groups of mice were immunized according to Example 2, and their sera were tested for the presence of anti-NE antibodies.
ELISA was utilized to test the presence of the anti-NE antibodies in the sera of the mice, as follows: Plates (Nunc) were coated with 5 μg/ml of HeLa cells NE for 90 min. Thereafter plates were washed and blocked, and ELISA was continued the next day, as described in Example 2 for anti-DNA antibodies.

SJL/J and BALB/c mice [3] = test: Anti-RNP, Sm, Ro and La antibodies in sera of immunized mice (ELISA); assay type: in vivo, mouse; details: for anti-RNP antibodies in sera / anti-Sm, anti-La and anti-Ro antibodies in sera: BALB/c mice; for anti-RNP, anti-Sm and anti-La antibodies in sera: sera diluted 1:10, compared to normal mice or p278
Description: The same sera of the mice as described in Examples 2 and 3 were used for detection of anti-RNP, Sm, Ro and La antibodies.
Plates were purchased as pre-coated plates and were blocked with 1% ovalbumin in PBS for 2 hr. Thereafter the plates were washed as in Example 2 above, incubated in duplicates with 1:10 diluted sera, washed again and ELISA was carried out as described in Example 2 above.

[4] = tested on: lymph node cells (LNC) of BALB/c and SJL mice; test: In vivo inhibition of LNC proliferation responses to the CDR-based peptides; parameters: species or system mouse; details: LNC of treated mice; not shown
Description: BALB/c (FIG. 5a) and SJL (FIG. 5b) mice were immunized with peptides Ia and IIIa (20 μg/mouse in CFA i.d. in the hind footpads), respectively. The mice were also injected i.v. with 200 μg of the above peptides in PBS either 3 days prior to immunization (open squares), at the immunization day (open circles) or at both dates (open triangles). Ten days later the mice were sacrificed and their lymph nodes were removed and tested for proliferation in the presence of different concentrations of the immunizing peptide. Control groups were of LNC taken from mice that were immunized but not treated (filled squares), or treated with control peptide, p307 (half filled squares). The culture mixtures were incubated for 96 hours in enriched RPMI medium containing 1% normal mouse serum prior to addition of ^3H-thymidine. Sixteen hours later cells were harvested and radioactivity was counted. Results are expressed as mean CPM of triplicates.

[5] = target: T1, MHC class II products on splenic antigen-presenting cells (APC) (Mus musculus, UniProt P14434+P14483); test: Inhibition of peptide binding to APC by anti-Ia mAb; parameters: concentration or dose not given beside the values
T1 construct: Splenic adherent cells (10^6/100 μl/tube) isolated from BALB/c, SJL, C3H.SW or C57BL/6 mice; from tissue; host or cells: mouse spleen adherent cells (BALB/c, SJL, C3H.SW, C57BL/6)
T1 sequence (P14434 24-256): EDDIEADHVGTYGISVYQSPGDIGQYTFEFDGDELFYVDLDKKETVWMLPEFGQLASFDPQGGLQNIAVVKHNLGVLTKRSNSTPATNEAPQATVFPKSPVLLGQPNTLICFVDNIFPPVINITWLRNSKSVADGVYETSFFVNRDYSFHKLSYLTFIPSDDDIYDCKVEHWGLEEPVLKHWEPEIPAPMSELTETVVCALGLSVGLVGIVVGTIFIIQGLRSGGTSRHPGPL
T1 sequence (P14483 28-265): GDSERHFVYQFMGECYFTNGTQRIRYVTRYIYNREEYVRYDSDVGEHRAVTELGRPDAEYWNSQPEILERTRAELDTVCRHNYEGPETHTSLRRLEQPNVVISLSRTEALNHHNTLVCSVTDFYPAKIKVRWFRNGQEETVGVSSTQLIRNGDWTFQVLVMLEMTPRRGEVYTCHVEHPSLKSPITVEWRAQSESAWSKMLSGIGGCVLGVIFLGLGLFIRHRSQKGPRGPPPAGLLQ
Description: Spleen cells suspended in RPMI 1640 medium containing 10% FCS were incubated in Petri dishes for 60 min at 37° C. Thereafter, non-adherent cells were removed, the plates were washed, and the adherent cells were collected from the plates using a rubber policeman (Costar, Mass., USA). These cells (1×10^6/100 μl/tube) were incubated with the biotinylated peptides in PBS containing 0.1% BSA (high purity grade, Amresco, Ohio, USA) for 16 hr at 37° C., followed by incubation with phycoerythrin (PE)-streptavidin (Jackson ImmunoResearch) for 30 min at 4° C. Thereafter the samples were incubated with biotinylated anti-streptavidin (1:60, Vector Laboratories, Burlingame, Calif.) and for an additional period with PE-streptavidin, all for 30 min at 4° C. The cells were washed twice with cold PBS/BSA solution after each incubation. Thereafter, cells were analyzed by flow cytometry using the FACSort cytometer and CELLQuest software (Beckton-Dickinson, Mountain View, Calif.). […]
Binding of the CDR-based peptides Ia and IIIa to APC was determined as described in Materials and Methods herein and the results are shown in Table 2. […] The results are shown in Table 3: Inhibition of binding was specific and ranged from 60% to 100%.

[6] = BALB/c mice immunized with 20 μg in CFA plus booster
[7] = SJL/J mice immunized with 20 μg in CFA plus booster
[8] = BALB/c mice immunized as in Example 2
[9] = SJL/J mice immunized as in Example 2
[10] = C3H.SW, H-2 b, mAb anti I-A^b (34-5-3)
[11] = C3H.SW, H-2 b, mAb anti I-A^d (MKD6)
[12] = C57BL/6, H-2 b, mAb anti I-A^b (34-5-3)
[13] = C57BL/6, H-2 b, mAb anti I-A^d (MKD6)

Substance | anti-DNA antibodies in sera (SJL/J and BALB/c mice [1]; [6]) | levels of autoantibodies including anti-DNA and anti-NE antibodies (SJL/J and BALB/c mice [1]) | anti-DNA antibodies in sera (SJL/J and BALB/c mice [1]; [7]) | anti-NE antibodies in sera (SJL/J and BALB/c mice [2]; [8]) | anti-NE antibodies in sera (SJL/J and BALB/c mice [2]; [9]) | anti-RNP antibodies in sera (SJL/J and BALB/c mice [3]; sera diluted 1:10) | anti-Sm, anti-La and anti-Ro antibodies in sera (SJL/J and BALB/c mice [3]; sera diluted 1:10) | anti-RNP, anti-Sm and anti-La antibodies in sera (SJL/J and BALB/c mice [3]; SJL/J mice) | proliferative responses of the LNC to Con A (specificity) [4] | % inhibition of binding to APC [5, 10] [%] | % inhibition of binding to APC [5, 11] [%] | % inhibition of binding to APC [5, 12] [%] | % inhibition of binding to APC [5, 13] [%] | anti-Ro autoantibodies in sera (SJL/J and BALB/c mice [3]; SJL/J mice, sera diluted 1:10)
TGYYMQWVKQSPEKSLEWIG [peptide Ia] | show presence of anti-DNA antibodies | elevated levels of autoantibodies | Low levels of anti-DNA antibodies | high levels of anti-NE antibodies | lower levels of anti-NE antibodies | very high levels of anti-RNP antibodies | produced detectable antibodies | High levels of anti-RNP, anti-Sm and anti-La antibodies | not inhibited | 60 | 0 | 82 | 0 | 
YYYCARFLWEPYAMDYWGQGS (YYCARFLWEPYAMDYWGQGS) [peptide IIIa, based on the CDR3 region of the VH chain of mAb 5G12] | did not show presence of anti-DNA antibodies | elevated levels of autoantibodies | high level of anti-DNA antibodies | very low level of anti-NE antibodies | high level of anti-NE antibodies | very high levels of anti-RNP antibodies | very low levels of anti-Sm, anti-La and anti-Ro antibodies | High levels of anti-RNP, anti-Sm and anti-La antibodies | not inhibited | 84.4 | 25 | 59.3 | 0 | extremely high levels of anti-Ro autoantibodies
